Results as given in US5958966A, “Treatment of aberrant cellular states with biomodulators” (University of New Mexico, priority 1995, dated 1999).
“Also recorded” adds a separate entry of the source.

How the values were obtained:
anti-CG IgG antibodies = test: tumor-specific (anti-CG) antibody production in a dog; assay type: in vivo
[1] = test system: human peripheral blood leukocytes (HPBL); test: stimulation / inhibition of IgG production in HPBL; assay type: cell-based; settings: HPBL
Procedure: Human peripheral blood leukocytes were cultured in a standard tissue culture medium. Aliquots of these cultured cells (1,000,000 cells/ml medium) were cultured for 6 hours, and the specified amount of Formula II compound was added; the cells were then cultured for an additional 90 hours. Sheep red blood cells (SRBC) conditioned with class-specific (IpG) goat anti-human antiserum (1:400) for 2 hours; then guinea pig complement (2%) for 2 hours were conjugated to Protein A as described in detail in Radioimmunoimaging and Radioimmunotherapy, Eds. S. W. Burchiel and B. A. Rhodes, Elsevier Science Publishing; New York, 1983, pp. 125-127, incorporated herein by reference.

canine glioma (CG) cells = test: chromium-release cell-mediated lympholysis (CML) vs. CG tumor in a dog; assay type: in vivo; settings: for CG-specific CML in words: dog
Text: Cellular immune response reflected the results reported in III, 1 above. […] This also is in the absence of CG antigen exposure. […] Thus, both cellular and humoral immunity appear to be modulatable in the absence of antigen by the compounds of the instant invention.

canine glioma cells = test: canine glioma tumor inhibition in nude rats (Formula II compound); assay type: in vivo, nude rat
Procedure: Fifty four nude rats (Harlan) were injected in the right flank with 5×10^6 canine glioma cells. Animals at the time of injection were between 52 and 63 days old and weighed approximately 200 g. The rats were divided into 7 groups, each group having a total number of 7 rats except for the control group, which totalled 12 animals. Compound IIc' was administered to the experimental animals at one of the following doses for each experimental group: 100 μg/kg, 10 μg/kg, 1 μg/kg, 0.1 μg/kg, 0.01 μg/kg and 0.001 μg/kg (phosphate buffer saline, M, W, F, I.P.). The control animals were injected with PBS (phosphate buffered saline) only. The volume of each injection was 100 μl. The injections of drug were simultaneously begun with injection of tumor cells. The animals were injected with the appropriate dosage of drug (1 ng/kg to […]) by I. P. injection and tumor length, width and depth were measured using caliphers each Monday, Wednesday and Friday (M, W, F) morning for approximately 9 weeks. Each point on the graphs represents the total of all rats for each group. […] The data were normalized for the greater number of control animals by multiplying the total tumor volume for the control animals by 7/12.

Q: `CC(C)OC(=O)C[C@H](O)C[C@@H](O)/C=C/c1c(C(C)C)nc(-c2ccccc2)n1-c1ccc(F)cc1` [Compound IIc'] was tested. Which “CG-specific antibody titer in words” value (anti-CG IgG antibodies) did it give?
A: Its value is “titers of antibody increased over the control antibody titer significantly; also recorded: CG-specific antibody (IgG) production increased significantly; also recorded: rapidly (within a few days) reverted to baseline control levels”.

Q: What about the “IgG production in words” value [1] of the same compound?
A: Its value is “stimulated IgG production”.

Q: What about the “Inhibitory Concentration (nonspecific IgG production below normal)” value [1] of the same compound?
A: Its value is “none found”.

Q: What about the “optimal dose in vitro” value ([1]; immune stimulation) of the same compound?
A: The value was 100 pM.

Q: And the “slope M of linear regression of toxicity” value (canine glioma (CG) cells; December 14, 1987)?
A: The value was 0.05.

Q: And the “slope M of linear regression of toxicity” value (canine glioma (CG) cells; February 9, 1988)?
A: The value was 0.35.

Q: What about the “slope M of linear regression of toxicity” value (canine glioma (CG) cells; February 17, 1988) of the same compound?
A: The value was 0.75.

Q: And the “slope M of linear regression of toxicity” value (canine glioma (CG) cells; March 31, 1988)?
A: The value was 0.05.

Q: And the “CG-specific CML in words” value (canine glioma (CG) cells)?
A: The value was “significant increase in CML; also recorded: large increase in the CML reactivity; also recorded: CML reactivity again returned to baseline”.

Q: What about the “CG-specific CML in words” value (canine glioma (CG) cells; listed as IIIc') of the same compound?
A: The value was “only baseline levels of CG-specific CML were present”.

Q: And the “cytostatic activity at other doses” value (canine glioma cells; 10 and 100 μg/kg or 1 ng/kg)?
A: Its value is “Little or no cytostatic activity”.

Q: And the “most effective dosage for inhibition” value (canine glioma cells; nude rats, I.P., M, W, F)?
A: The value was 100 ng/kg.
